Test results reported in US6506784B1, “Use of 1,3-substituted pyrazol-5-yl sulfonates as pesticides” (3-Dimensional Pharmaceuticals, Inc., priority 1999, dated 2003).

Each molecule was assayed against Mouse Brain GABA Receptors (assay: In vitro assay of ability to bind mouse brain GABA receptors (3H-EBOB displacement, mouse brain membranes)). Conditions: inhibition of 3H-EBOB binding to mouse brain membranes; NI = non-inhibitor.
Procedure: Mouse brains were obtained from carbon dioxide-asphyxiated Swiss-Webster mice, washed with phosphate-buffered saline, and used either fresh or after storage at −80° C. for up to 10 months. Unless specified, all preparation steps were performed at 0-4° C. For each preparation, 20 brains were suspended in about 40 mL of 0.32 M sucrose and homogenized for about 2 minutes, using a Tissumizer™ homogenizer equipped with a SDT-100EN probe (available from Tekmar-Dohrmann, Cincinnati, Ohio) running at 50% of its maximum speed. The extract was centrifuged for about 5 min at about 1000×g to pellet intact brain tissue. The supernatant was retained and the pellet washed with an additional 40 mL of 0.32 M sucrose and centrifuged at 1000×g for about 5 minutes. The 1000×g supernatants were combined and centrifuged at about 10,000×g for about 20 min to pellet membranes. The 10,000×g supernatant was discarded and the pellet was resuspended in about 20 mL of water containing 1 mM EDTA. The sample was dialyzed two times for about 3 hours each against about 3 L of water. The sample was then centrifuged at about 25,000×g for about 30 min to pellet the membranes. After centrifugation, the supernatant was discarded and the pellet recovered. The protein concentration of the pellet was determined by the Bio-Rad Protein Assay (available from Bio-Rad Laboratories, Hercules, Calif.) using bovine serum albumin as a standard. The membranes were aliquoted and stored at −80° C. for up to 6 months before use.
Mouse brain membranes were prepared as described above from dissected mouse brains. Test compounds were dissolved in dimethylsulfoxide (DMSO) at concentrations ranging from about 2 nM to about 100 mM. About 1 μL of a dissolved test compound was dispensed into a well of a 96-well polystyrene plate. About 100 μL of ice cold assay buffer (10 mM phosphate, 300 mM NaCl, pH 7.5) containing 5.2 nM 4′-Ethynyl-4-n-[2,3-^3H2]propylbicycloorthobenzoate (^3H-EBOB, 38 Ci/mmol, available from NEN Life Science Products, Boston, Mass.) was added to the well, followed by about 100 μL of ice cold assay buffer containing about 0.25-0.5 mg/ml mouse brain membranes. Control wells were prepared the same way except that the mouse brain membranes were omitted from the “negative” wells, and the test compounds were omitted from the “positive” wells. The samples were incubated for about 45 min at about 24° C. and then filtered on a 0.1% (w/v) polyethylenimine-soaked glass fiber Filtermat A (available from EG&G Wallac Inc., Gaithersburg, Md.) followed by four 100 mL rinses of cold assay buffer using a Harvester 96® cell harvester (available from Tomtec, Orange, Conn.). The filtermat was air dried and radioactivity bound to the filtermat was detected with either a 1450 MicroBeta® Trilux scintillation counter (available from EG&G Wallac Inc.) or a Topcount NXT™ scintillation counter (available from Packard Instrument Co., Meriden, Conn.) using standard methods.
Specific binding was considered to be the difference between total ^3H bound to the mouse brain membranes in the absence of any inhibitors and nonspecific ^3H bound to the mouse brain membranes upon the addition of 5 μM unlabeled EBOB. The average radioactivity contained in the “negative” wells was subtracted from each of the assay wells. […] This value was calculated by plotting the data on a log-linear plot and either dropping a line to the x-axis perpendicular to a line drawn to the y-axis at approximately 50% inhibition of ^3H-EBOB binding, or by fitting the data to the formula I=XY/(X+Z), in which I is the percent inhibition of ^3H-EBOB binding, X is the inhibitor concentration, Y is the maximum percent inhibition of ^3H-EBOB binding observed, and Z is the calculated IC50.

SMILES | IC50
O=S(=O)(Oc1cc(C(F)(F)F)nn1-c1ccccc1)c1ccc(F)c(Cl)c1 [compound 14] | 12 µM
Cn1nc(C(F)(F)F)cc1OS(=O)(=O)c1ccc(F)c(F)c1 [compound 10] | 1 µM
Cn1nc(C(F)(F)F)cc1OS(=O)(=O)c1ccc(F)cc1Cl [compound 20, 1-methyl-3-(trifluoromethyl)pyrazol-5-yl 2-chloro-4-fluorobenzenesulfonate] | 3.3 µM
Cn1nc(C(F)(F)F)cc1OS(=O)(=O)c1cccc(F)c1 [compound 8] | 0.16 µM
Cn1nc(C(F)(F)F)cc1OS(=O)(=O)c1cc(Cl)c(Cl)cc1Cl [compound 1] | 8.4 µM
Cn1nc(C(F)(F)F)cc1OS(=O)(=O)c1cccc(Cl)c1 [compound 4] | 0.5 µM
Cn1nc(C(F)(F)F)cc1OS(=O)(=O)c1cc(Cl)ccc1Cl [compound 3] | 2 µM
Cn1nc(C(F)(F)F)cc1OS(=O)(=O)c1ccc(Br)c(Br)c1 [compound 6] | 12.5 µM
Cc1c(Cl)cccc1S(=O)(=O)Oc1cc(C(F)(F)F)nn1C [compound 16] | 12 µM
Cn1nc(C(F)(F)F)cc1OS(=O)(=O)c1ccc(C(F)(F)F)cc1Cl [compound 5, 1-methyl-3-(trifluoromethyl)pyrazol-5-yl 2-chloro-4-(trifluoromethyl)benzenesulfonate] | 14 µM
Cn1nc(C(C)(C)C)cc1OS(=O)(=O)c1ccc(Cl)cc1Cl [compound 17] | 5.4 µM
Cc1cc(S(=O)(=O)Oc2cc(C(F)(F)F)nn2C)ccc1Cl [compound 7] | 11 µM
Cn1nc(C(F)(F)F)cc1OS(=O)(=O)c1ccc(Cl)c(Cl)c1 [compound 2] | 9 µM
Cc1cc(F)ccc1S(=O)(=O)Oc1cc(C(F)(F)F)nn1C [compound 11] | 3.6 µM
Cn1nc(C(F)(F)F)cc1OS(=O)(=O)c1c(F)cccc1F [compound 9] | 6 µM
Cn1nc(C(F)(F)F)cc1OS(=O)(=O)c1ccc(Cl)cc1Cl [compound 12, 1-methyl-3-(trifluoromethyl)pyrazol-5-yl 2,4-dichlorobenzenesulfonate] | 4.9 µM
Cn1nc(C(F)(F)F)cc1OS(=O)(=O)c1ccc2ccccc2c1 [compound 13] | 3 µM
Cn1nc(C(C)(C)C)cc1OS(=O)(=O)c1ccc(F)cc1Cl [compound 19] | 1.3 µM
Cc1nn(-c2ccccc2)c(OS(=O)(=O)c2ccc(F)cc2Cl)c1Cl [compound 18] | 1 µM
